Laboratory results reported in patent US9828332B2, “Non-peptide BDNF neurotrophin mimetics” (PHARMATROPHIX, INC., priority 2013, dated 2017).
Values joined by “and” are separate entries in the source; they are usually repeats but may differ in a detail not shown here. Equal values may be shown once. Read-outs that look alike come from different tables or passages of the source.

Columns and labels:
[1] = Observations and adverse reactions after intraperitoneal administration; assay type: in vivo, CD-1 mice; conditions: IP 50 mg/kg in sterile water for injection
Description: (§1) In this study, the brain-to-plasma ratio of Compound 2 and Compound 3 was evaluated after intraperitoneal dosing in fasted male CD-1 mice. Test compounds were dosed at 50 mg/kg in sterile water for injection. Plasma and brain homogenate levels were determined at 1 and 3 hours post dose by LC-MS/MS.

[2] = Determination of the brain-to-plasma ratio after intraperitoneal administration (plasma and brain homogenate levels by LC-MS/MS); assay type: in vivo, male CD-1 mice; parameters: Brain Tissue Homogen. Conc / Brain Tissue Conc: unit not given here
Description: as §1
The dosing solution was diluted in triplicate into mouse plasma and analyzed in parallel with the study samples. The nominal dosing solution concentration was used in all calculations. All concentrations are expressed as […] of the free drug. All data are expressed as ng/mL (equivalent to ng/g for calculation of brain:plasma ratio) of the free drug. Samples that were below the limit of quantitation were not used in the calculation of averages.
Brain-to-plasma ratios were determined by dividing the brain concentration in ng/g by the plasma concentration in ng/g.
Brain samples were homogenizcd with a Virsonic 100 ultrasonic homogenizer. Each brain sample was first weighed, and then an appropriate volume of 20:80 methanol:water was added to make a 4 mL/1 gram sample. Samples were then homogenized on ice, and stored frozen until analysis.
Standards samples were prepared in either CD-1 Mouse plasma containing K2EDTA as an anticoagulant or CD-1 mouse brain homogenate. Working solutions (200 μg/mL and/or 20 μg/mL for each test compound) was prepared in 50:50 ACN:water. Then, a nine-point calibration curve was prepared at concentrations of 2000, 1500, 1000, 500, 100, 50, 20, 10, and 5 ng/mL of each test compound by serial dilution; or for a high-sensitivity method, another nine point calibration curve was prepared at concentrations of 200, 150, 100, 50, 10, 5, 2, 1, and 0.5 ng/mL of each test compound by serial dilution. Standard samples were treated identically to the study samples.
Plasma and brain homogenate samples were extracted via acetonitrile precipitation on a Tomtec Quadra 96-Model 320 liquid handling system in a 96-well plate format.

[3] = IP 50 mg/kg, 1.0 hr post dose, individual mouse, 50 mg/kg
[4] = IP 50 mg/kg, 3.0 hr post dose, individual mouse, 50 mg/kg
[5] = male, CD-1, mouse, brain/plasma, ip, 50 mg/kg, 1 hour post dose, mean of mice, read-out: Average B:P Ratio

Row | Average B:P Ratio ([2]; IP 50 mg/kg, 1 hour post dose, mean of mice, 50 mg/kg) | B:P Ratio ([2]; IP 50 mg/kg, 1.0 hr post dose, individual mouse) | Plasma Conc [2, 3] | Average B:P Ratio ([2]; IP 50 mg/kg, 3 hours post dose, mean of mice, 50 mg/kg) | B:P Ratio [2, 4] | Plasma Conc [2, 4] | Kp at 1 h [2, 5] | Kp at 1 h ([2]; male, CD-1, mouse, brain/plasma, ip, 50 mg/kg, 1.0 hr post dose, individual mouse, read-out: B:P Ratio) | Kp at 3 h ([2]; male, CD-1, mouse, brain/plasma, ip, 50 mg/kg, 3 hours post dose, mean of mice, read-out: Average B:P Ratio) | concentration at 1 h ([2]; male, CD-1, mouse, plasma, ip, 50 mg/kg, 1.0 hr post dose, individual mouse, read-out: Plasma Conc) [ng/mL] | B:P Ratio [2, 3] | Brain Tissue Conc [2, 3] | Brain Tissue Homogen. Conc ([2]; IP 50 mg/kg, 3.0 hr post dose, individual mouse) | concentration at 3 h ([2]; male, CD-1, mouse, brain, ip, 50 mg/kg, 3 hours post dose, read-out: brain tissue concentrations (BLOQ)) [ng/mL] | Compound | adverse effects after intraperitoneal administration [1]
1 | 0.038 | 0.04 | 3010 ng/mL and 2440 ng/mL | 0.525 | 0.78 and 0.24 and 0.55 | 17.2 ng/mL and 36 ng/mL and 71.7 ng/mL | 0.038 ± 0.004 | 0.04 | 0.525 ± 0.275 | 2770 |  |  |  |  | COCCN(C)C(=O)c1cc(C(=O)N(C)CCOC)cc(C(=O)N(C)CCOC)c1 [Compound 3, N^1,N^3,N^5-tris(2-methoxyethyl)-N^1,N^3,N^5-trimethylbenzene-1,3,5-tricarboxamide] | No adverse effects were observed
2 |  |  | 675 ng/mL and 30.7 ng/mL and 41.8 ng/mL |  |  | 3.13 ng/mL and 2.22 ng/mL and 16.5 ng/mL | 0.056 |  |  |  | 0.01 and 0.1 | 4.19 | BLQ | < 0.5 | COCCNC(=O)c1cc(C(=O)NCCOC)cc(C(=O)NCCOC)c1 [Compound 2, N^1,N^3,N^5-tris(2-methoxyethyl)benzene-1,3,5-tricarboxamide] | No adverse effects were observed
